What all share (test): MIC (YAG medium)
Type in all cases: cell-based

In one test the test system is Aspergillus flavus. Particulars: YAG medium, MIC banded into grades; for MIC: Aspergillus flavus, read-out: MIC A. flavus (grade). In outline:
(§1)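 Broth microdilution, YAG medium, 35° C/24 h. Aspergillus spores from 5-d Sabouraud agar, final 1-2×10^4 cfu/mL. Endpoint: >70% inhibition by OD485, mg/L.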

The subject of test [1] is Aspergillus fumigatus AF210. The note with it: YAG medium, MIC banded into grades, AF210; for MIC: Aspergillus fumigatus, read-out: MIC A. fumigatus 210 (grade). In outline: as §1
Test [2] relates to Aspergillus fumigatus AF293. The note with it: YAG medium, MIC banded into grades, AF293; for MIC: Aspergillus fumigatus, read-out: MIC A. fumigatus (grade). In outline:
as §1

For the next test, the system named is Aspergillus niger. The note with it: YAG medium, MIC banded into grades; for MIC: Aspergillus niger, read-out: MIC A. niger (grade). In outline:
as §1

The subject of another test is Aspergillus terreus AT49. Particulars: YAG medium, MIC banded into grades, AT49; for MIC: Aspergillus terreus, read-out: MIC A. terreus 49 (grade). The procedure, abridged: as §1
A further test concerns Aspergillus terreus AT4. Particulars: YAG medium, MIC banded into grades, AT4; for MIC: Aspergillus terreus, read-out: MIC A. terreus (grade). The procedure, abridged:
as §1

On to `O=C(Nc1ccc(N2CCN(c3ccccn3)CC2)cc1)C(=O)c1c(-c2ccccc2)cc2ccc(F)cn12` [Example 42, 2-(6-Fluoro-2-phenyl-indolizin-3-yl)-2-oxo-N-[4-(4-pyridin-2-yl-piperazin-1-yl)phenyl] acetamide], for which, in the test on Aspergillus flavus, the “MIC A. flavus (grade)” value is given as 3 (A grade of 3 represents an MIC of less than 1 mg/L). Besides, in test [1], the “MIC A. fumigatus 210 (grade)” value is recorded as 3 (A grade of 3 represents an MIC of less than 1 mg/L). Besides, the “MIC A. fumigatus (grade)” value in test [2] is reported as 3 (A grade of 3 represents an MIC of less than 1 mg/L). In the test on Aspergillus niger, the “MIC A. niger (grade)” value is recorded as 3 (A grade of 3 represents an MIC of less than 1 mg/L). In the test on Aspergillus terreus AT49, the “MIC A. terreus 49 (grade)” value is given as 3 (A grade of 3 represents an MIC of less than 1 mg/L). In the test on Aspergillus terreus AT4, the “MIC A. terreus (grade)” value is on record as 3 (A grade of 3 represents an MIC of less than 1 mg/L).

Broadly, the MIC is the lowest concentration that inhibits growth of the organism. For the molecule `CC(C)c1ncc(C(C)(C)c2cccc(NC(=O)C(=O)c3c(-c4ccccc4)cc4ccccn34)c2)n1C` [Example 15, N-{3-[1-(2-Isopropyl-3-methyl-3H-imidazol-4-yl)-1-methyl-ethyl]-phenyl}-2-oxo-2-(2-phenyl-indolizin-3-yl)-acetamide], the MIC (with Aspergillus flavus; in test [1]; in test [2]; with Aspergillus niger; with Aspergillus terreus AT49; in the test on Aspergillus terreus AT4) was above 10 µg/mL throughout.

For `COCCN(C)c1ccc(N2CCN(c3ccc(NC(=O)C(=O)c4c(-c5ccccc5)cc5ccccn45)cc3)CC2)cn1` [Example 68, N-[4-(4-{6-[(2-Methoxy-ethyl)-methyl-amino]-pyridin-3-yl}-piperazin-1-yl)-phenyl]-2-oxo-2-(2-phenyl-indolizin-3-yl)-acetamide], the MIC (in the test on Aspergillus flavus; in test [1]; in test [2]; with Aspergillus niger; in the test on Aspergillus terreus AT49; in the test with Aspergillus terreus AT4) was below 1 µg/mL each time.

With `Cc1c(-c2ccccc2)c2ccccn2c1C(=O)C(=O)Nc1ccc(N2CCOCC2)cc1` [Example 7, 2-(2-methyl-1-phenyl-indolizin-3-yl)-N-(4-morpholin-4-yl-phenyl)-2-oxo-acetamide], the MIC (in the test with Aspergillus flavus; in test [1]; in test [2]; in the test with Aspergillus niger; with Aspergillus terreus AT49; in the test with Aspergillus terreus AT4) was above 10 µg/mL each time.

Turning to `Cc1cc(C)nc(OCCOc2ccc(NC(=O)C(=O)c3c(-c4ccccc4)cc4ccccn34)cc2)c1` [Example 65, N-{4-[2-(4,6-Dimethyl-pyridin-2-yloxy)-ethoxy]-phenyl}-2-oxo-2-(2-phenyl-indolizin-3-yl)-acetamide], the MIC (in the test with Aspergillus flavus; in test [1]; in test [2]; in the test on Aspergillus niger; in the test with Aspergillus terreus AT49; in the test on Aspergillus terreus AT4) was below 1 µg/mL each time.

For the molecule `O=C(Nc1ccc(-c2cocn2)cc1)C(=O)c1c(-c2ccc(-c3ccccc3)cc2)cc2ccccn12` [Example 85, 2-(2-Biphenyl-4-yl-indolizin-3-yl)-N-(4-oxazol-4-yl-phenyl)-2-oxo-acetamide], the MIC in the test with Aspergillus flavus is below 1 µg/mL; in test [1] it was above 10 µg/mL; in test [2], above 10 µg/mL; with Aspergillus niger, above 10 µg/mL; with Aspergillus terreus AT49, below 1 µg/mL; in the test with Aspergillus terreus AT4 it was below 1 µg/mL.

For the molecule “N-[4-(3-Ethyl-1H-imidazol-2yl methyl)-phenyl]-2-oxo-2-(2-o-tolyl-indolizin-3yl)-acetamide [Example 30]”, in the test with Aspergillus flavus, the “MIC A. flavus (grade)” value is 1 (a grade of 1 represents an MIC of greater than 10 mg/L). In addition, the “MIC A. fumigatus 210 (grade)” value in test [1] is reported as 1 (a grade of 1 represents an MIC of greater than 10 mg/L). In addition, the “MIC A. fumigatus (grade)” value in test [2] was 1 (a grade of 1 represents an MIC of greater than 10 mg/L). Besides, the “MIC A. niger (grade)” value against Aspergillus niger was 1 (a grade of 1 represents an MIC of greater than 10 mg/L). In the test on Aspergillus terreus AT49, the “MIC A. terreus 49 (grade)” value is reported as 1 (a grade of 1 represents an MIC of greater than 10 mg/L). Besides, in the test on Aspergillus terreus AT4, the “MIC A. terreus (grade)” value was 1 (a grade of 1 represents an MIC of greater than 10 mg/L).

Consider `CCc1cccc(N2CCN(c3ccc(NC(=O)C(=O)c4c(-c5ccccc5)cc5ccccn45)cc3)CC2)n1` [Example 73, N-{4-[4-(6-ethyl-pyridin-2-yl)-piperazin-1-yl]-phenyl}-2-oxo-2-(2-phenyl-indolizin-3-yl)-acetamide], for which the MIC (with Aspergillus flavus; in test [1]; in test [2]; in the test with Aspergillus niger; in the test with Aspergillus terreus AT49; with Aspergillus terreus AT4) was below 1 µg/mL each time.

`O=C(Nc1ccc(N2CCN(c3cccnc3)CC2)cc1)C(=O)c1c(-c2ccccc2)cc2ccccn12` [Example 59, 2-Oxo-2-(2-phenyl-indolizin-3-yl)-N-[4-(4-pyridin-3-yl-piperazin-1-yl)-phenyl]-acetamide]: the MIC (in the test with Aspergillus flavus; in test [1]; in test [2]; with Aspergillus niger; with Aspergillus terreus AT49; with Aspergillus terreus AT4) was below 1 µg/mL in each case.

Regarding `O=C(Nc1cnccc1N1CCN(CCc2ccco2)CC1)C(=O)c1c(-c2ccccc2)cc2ccccn12` [Example 38, N-{4-[4-(2-Furan-2-yl-ethyl)-piperazin-1-yl]-pyridin-3-yl}-2-oxo-2-(2-phenyl-indolizin-3-yl)-acetamide], the MIC (in the test on Aspergillus flavus; in test [1]; in test [2]; in the test with Aspergillus niger; in the test with Aspergillus terreus AT49; in the test with Aspergillus terreus AT4) was below 1 µg/mL throughout.

Regarding `Cc1cc(C)nc(N2CCN(c3cccc(NC(=O)C(=O)c4c(-c5ccccc5)cc5ccccn45)c3)CC2)c1` [Example 48, N-{3-[4-(4,6-Dimethyl-pyridin-2-yl)-piperazin-1-yl]-phenyl}-2-oxo-2-(2-phenyl-indolizin-3-yl)-acetamide], the MIC (with Aspergillus flavus; in test [1]; in test [2]; in the test on Aspergillus niger; in the test on Aspergillus terreus AT49; in the test with Aspergillus terreus AT4) was below 1 µg/mL throughout.

In the case of `O=C(Nc1ccc(N2CCN(CCc3ccco3)CC2)cc1)C(=O)c1c(-c2ccccc2)cc2ccccn12` [Example 39, N-{4-[4-(2-Furan-2-yl-ethyl)-piperazin-1-yl]-phenyl}-2-oxo-2-(2-phenyl-indolizin-3-yl)-acetamide], the MIC (with Aspergillus flavus; in test [1]; in test [2]; in the test with Aspergillus niger; in the test with Aspergillus terreus AT49; with Aspergillus terreus AT4) was below 1 µg/mL in each case.

On to `Cc1cc(C)nc(CCCCc2ccc(NC(=O)C(=O)c3c(-c4ccccc4)cc4ccccn34)cc2)c1` [Example 72, N-{4-[4-(4,6-Dimethyl-pyridin-2-yl)-butyl]-phenyl}-2-oxo-2-(2-phenyl-indolizin-3-yl)-acetamide], for which the MIC (in the test on Aspergillus flavus; in test [1]; in test [2]; in the test on Aspergillus niger; with Aspergillus terreus AT49; in the test on Aspergillus terreus AT4) was below 1 µg/mL in each case.

Source of the values: patent US20110183969A1, “ANTIFUNGAL COMBINATION THERAPY” (priority 2008, published 2011).
